One block for each compound: values may come before it.
Assays:
[1] = biological target: Gastrin/cholecystokinin type B receptor (Homo sapiens) (UniProt P32239); assay: Selectivity interaction (Eurofins CEREP Diversity Profile (receptors and ion channels)) EUB0000279b CCKBR; details: at 10 µM
[2] = biological target: T1, Bone morphogenetic protein receptor type-2 (Homo sapiens) (UniProt Q13873); assay: Selectivity interaction (KinomeScan (DiscoverX)) EUB0000666a BMPR2; details: at 10 µM
T1 sequence (whole entry): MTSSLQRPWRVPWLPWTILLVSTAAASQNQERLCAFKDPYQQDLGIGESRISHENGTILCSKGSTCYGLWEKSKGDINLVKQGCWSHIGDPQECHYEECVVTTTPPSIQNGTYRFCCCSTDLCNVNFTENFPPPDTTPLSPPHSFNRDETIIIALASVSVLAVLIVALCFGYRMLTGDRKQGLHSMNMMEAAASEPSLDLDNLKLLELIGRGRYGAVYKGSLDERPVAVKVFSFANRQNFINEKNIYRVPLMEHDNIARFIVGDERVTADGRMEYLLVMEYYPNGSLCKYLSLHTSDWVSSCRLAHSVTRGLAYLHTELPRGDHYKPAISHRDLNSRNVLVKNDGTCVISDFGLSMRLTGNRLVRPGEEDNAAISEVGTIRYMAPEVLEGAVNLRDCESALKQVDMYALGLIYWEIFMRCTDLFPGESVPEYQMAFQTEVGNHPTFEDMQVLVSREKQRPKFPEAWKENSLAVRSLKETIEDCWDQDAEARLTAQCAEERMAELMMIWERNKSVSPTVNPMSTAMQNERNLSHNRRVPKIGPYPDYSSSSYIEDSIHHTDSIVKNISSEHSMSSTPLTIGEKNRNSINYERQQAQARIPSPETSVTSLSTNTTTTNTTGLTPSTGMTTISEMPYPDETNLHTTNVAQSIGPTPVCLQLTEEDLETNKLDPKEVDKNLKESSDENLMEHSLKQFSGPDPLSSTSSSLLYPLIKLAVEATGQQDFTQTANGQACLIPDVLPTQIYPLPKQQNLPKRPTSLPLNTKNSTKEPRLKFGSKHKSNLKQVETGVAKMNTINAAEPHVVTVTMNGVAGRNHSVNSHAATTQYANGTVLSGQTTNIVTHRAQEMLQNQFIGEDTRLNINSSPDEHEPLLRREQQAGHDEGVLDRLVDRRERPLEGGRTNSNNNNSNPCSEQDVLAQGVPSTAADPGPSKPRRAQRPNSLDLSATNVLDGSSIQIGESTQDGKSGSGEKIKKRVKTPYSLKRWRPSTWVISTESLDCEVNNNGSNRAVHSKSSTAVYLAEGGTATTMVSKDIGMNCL

[3] = biological target: RAF proto-oncogene serine/threonine-protein kinase (Homo sapiens) (UniProt P04049); details: at 10 µM
Chain of RAF proto-oncogene serine/threonine-protein kinase (Homo sapiens) (P04049 whole entry): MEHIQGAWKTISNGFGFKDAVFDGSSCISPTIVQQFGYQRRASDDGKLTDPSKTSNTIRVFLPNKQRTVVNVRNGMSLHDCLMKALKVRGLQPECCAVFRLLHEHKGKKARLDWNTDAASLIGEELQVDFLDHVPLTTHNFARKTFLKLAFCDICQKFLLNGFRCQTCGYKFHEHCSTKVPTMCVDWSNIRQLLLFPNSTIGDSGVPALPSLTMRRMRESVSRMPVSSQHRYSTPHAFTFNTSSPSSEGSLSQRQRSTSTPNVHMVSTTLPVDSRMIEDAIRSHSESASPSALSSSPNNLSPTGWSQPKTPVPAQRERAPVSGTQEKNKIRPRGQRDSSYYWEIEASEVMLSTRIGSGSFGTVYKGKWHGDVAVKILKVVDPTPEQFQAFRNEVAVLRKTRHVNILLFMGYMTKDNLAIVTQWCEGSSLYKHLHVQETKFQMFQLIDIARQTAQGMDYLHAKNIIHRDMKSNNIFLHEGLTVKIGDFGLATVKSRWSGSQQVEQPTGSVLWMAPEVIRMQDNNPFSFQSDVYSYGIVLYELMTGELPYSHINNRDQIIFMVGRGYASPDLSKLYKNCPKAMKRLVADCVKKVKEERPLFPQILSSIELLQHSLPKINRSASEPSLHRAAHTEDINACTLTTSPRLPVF

[4] = system: T2, Receptor-type tyrosine-protein kinase FLT3 (Homo sapiens), P36888 [D835Y]; details: at 10 µM
T2 sequence (whole entry): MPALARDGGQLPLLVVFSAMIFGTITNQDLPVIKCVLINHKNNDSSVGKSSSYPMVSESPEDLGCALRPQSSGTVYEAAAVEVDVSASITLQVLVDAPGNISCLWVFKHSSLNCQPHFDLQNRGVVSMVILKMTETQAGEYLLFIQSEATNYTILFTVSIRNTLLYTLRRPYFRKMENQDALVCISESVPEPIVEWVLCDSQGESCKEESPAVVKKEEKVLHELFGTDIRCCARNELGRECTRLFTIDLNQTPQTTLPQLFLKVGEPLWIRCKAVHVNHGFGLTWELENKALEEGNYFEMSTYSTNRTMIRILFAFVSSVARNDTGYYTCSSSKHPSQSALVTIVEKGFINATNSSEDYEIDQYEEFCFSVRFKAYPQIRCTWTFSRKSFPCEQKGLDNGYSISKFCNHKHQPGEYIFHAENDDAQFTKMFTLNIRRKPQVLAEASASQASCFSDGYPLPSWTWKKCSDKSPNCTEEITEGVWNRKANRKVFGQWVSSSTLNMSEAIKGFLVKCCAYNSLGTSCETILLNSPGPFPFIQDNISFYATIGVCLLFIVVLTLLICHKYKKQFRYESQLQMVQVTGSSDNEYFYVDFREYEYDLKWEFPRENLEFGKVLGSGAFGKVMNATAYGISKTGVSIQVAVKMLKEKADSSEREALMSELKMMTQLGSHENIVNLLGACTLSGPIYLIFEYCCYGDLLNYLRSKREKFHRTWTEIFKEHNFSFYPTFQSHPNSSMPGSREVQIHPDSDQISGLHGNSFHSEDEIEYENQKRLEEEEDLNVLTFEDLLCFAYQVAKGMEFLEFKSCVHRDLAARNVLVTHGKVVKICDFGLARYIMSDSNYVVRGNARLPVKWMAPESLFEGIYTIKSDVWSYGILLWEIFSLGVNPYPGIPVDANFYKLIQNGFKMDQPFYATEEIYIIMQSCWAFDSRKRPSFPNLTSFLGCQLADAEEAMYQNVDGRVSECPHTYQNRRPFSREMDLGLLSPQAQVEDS

[5] = biological target: 5'-AMP-activated protein kinase catalytic subunit alpha-2 (Homo sapiens) (UniProt P54646); assay: Selectivity interaction (KinomeScan (DiscoverX)) EUB0001049a PRKAA2; details: at 1 µM
Chain of 5'-AMP-activated protein kinase catalytic subunit alpha-2 (Homo sapiens) (P54646 whole entry, looked up): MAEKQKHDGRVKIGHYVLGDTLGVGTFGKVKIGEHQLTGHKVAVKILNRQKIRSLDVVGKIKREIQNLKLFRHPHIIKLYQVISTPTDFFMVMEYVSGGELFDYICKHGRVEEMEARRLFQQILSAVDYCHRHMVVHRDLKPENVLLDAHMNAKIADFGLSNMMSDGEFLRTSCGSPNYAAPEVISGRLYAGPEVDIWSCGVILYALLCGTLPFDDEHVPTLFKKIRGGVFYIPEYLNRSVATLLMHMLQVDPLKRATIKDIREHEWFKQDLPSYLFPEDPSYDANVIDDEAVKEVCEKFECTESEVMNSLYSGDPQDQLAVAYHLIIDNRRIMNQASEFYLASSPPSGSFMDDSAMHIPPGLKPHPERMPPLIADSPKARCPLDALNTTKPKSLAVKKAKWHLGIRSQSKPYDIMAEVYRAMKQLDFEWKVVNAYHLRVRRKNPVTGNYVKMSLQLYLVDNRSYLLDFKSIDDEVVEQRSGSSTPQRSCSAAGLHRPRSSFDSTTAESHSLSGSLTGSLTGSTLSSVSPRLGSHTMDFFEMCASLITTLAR

[6] = biological target: Serine/threonine-protein kinase PAK 2 (Homo sapiens) (UniProt Q13177); assay: Selectivity interaction (KinomeScan (DiscoverX)) EUB0000655a PAK2; details: at 10 µM
Chain of Serine/threonine-protein kinase PAK 2 (Homo sapiens) (Q13177 whole entry): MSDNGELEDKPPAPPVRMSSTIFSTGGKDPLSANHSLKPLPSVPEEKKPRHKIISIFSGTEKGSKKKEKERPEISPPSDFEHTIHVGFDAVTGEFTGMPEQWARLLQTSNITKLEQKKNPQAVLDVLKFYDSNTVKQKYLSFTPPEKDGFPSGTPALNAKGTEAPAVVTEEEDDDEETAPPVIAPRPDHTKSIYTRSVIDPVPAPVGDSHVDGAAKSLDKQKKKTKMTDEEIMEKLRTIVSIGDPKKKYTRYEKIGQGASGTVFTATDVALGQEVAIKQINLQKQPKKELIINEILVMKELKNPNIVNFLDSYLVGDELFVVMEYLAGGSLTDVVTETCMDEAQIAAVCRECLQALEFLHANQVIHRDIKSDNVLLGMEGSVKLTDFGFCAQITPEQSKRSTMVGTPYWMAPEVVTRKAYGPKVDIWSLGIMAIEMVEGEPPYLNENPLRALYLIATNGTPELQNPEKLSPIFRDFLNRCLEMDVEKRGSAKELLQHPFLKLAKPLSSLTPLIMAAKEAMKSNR

[7] = biological target: T3, Mitogen-activated protein kinase kinase kinase 3 (Homo sapiens) (UniProt Q99759); assay: Selectivity interaction (KinomeScan (DiscoverX)) EUB0001619a MAP3K3; details: at 1 µM
T3 sequence (whole entry): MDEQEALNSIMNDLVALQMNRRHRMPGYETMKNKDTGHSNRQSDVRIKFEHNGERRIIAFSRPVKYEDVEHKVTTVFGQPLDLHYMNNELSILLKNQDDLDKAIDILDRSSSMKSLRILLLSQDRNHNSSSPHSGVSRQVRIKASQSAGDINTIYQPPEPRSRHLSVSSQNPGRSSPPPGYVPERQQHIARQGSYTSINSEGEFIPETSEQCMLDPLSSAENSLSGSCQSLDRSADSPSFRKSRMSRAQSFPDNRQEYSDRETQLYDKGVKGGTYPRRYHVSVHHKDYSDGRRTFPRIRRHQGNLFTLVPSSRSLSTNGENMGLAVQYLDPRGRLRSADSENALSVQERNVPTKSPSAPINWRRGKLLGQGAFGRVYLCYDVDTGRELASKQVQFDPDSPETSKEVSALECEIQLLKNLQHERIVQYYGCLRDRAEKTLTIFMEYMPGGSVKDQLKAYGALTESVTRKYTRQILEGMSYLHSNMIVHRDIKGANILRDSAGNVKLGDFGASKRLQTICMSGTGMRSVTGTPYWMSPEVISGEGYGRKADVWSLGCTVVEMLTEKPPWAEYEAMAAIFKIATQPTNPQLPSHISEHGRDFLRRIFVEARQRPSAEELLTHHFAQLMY

Chain of Gastrin/cholecystokinin type B receptor (Homo sapiens) (P32239 whole entry): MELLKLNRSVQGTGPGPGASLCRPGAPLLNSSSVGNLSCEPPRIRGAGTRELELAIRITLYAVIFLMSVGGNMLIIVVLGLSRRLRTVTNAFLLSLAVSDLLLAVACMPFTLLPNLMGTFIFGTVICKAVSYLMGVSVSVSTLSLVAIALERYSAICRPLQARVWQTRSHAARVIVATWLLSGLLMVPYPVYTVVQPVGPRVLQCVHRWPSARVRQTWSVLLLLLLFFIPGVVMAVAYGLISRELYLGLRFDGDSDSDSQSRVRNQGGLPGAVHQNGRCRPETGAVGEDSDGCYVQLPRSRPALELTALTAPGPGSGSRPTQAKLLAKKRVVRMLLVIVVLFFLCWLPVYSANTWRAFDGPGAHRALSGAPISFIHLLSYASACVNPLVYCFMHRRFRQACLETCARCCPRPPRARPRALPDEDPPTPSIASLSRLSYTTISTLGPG

% of control [1]: 95%
Structure (SMILES): CC(=O)c1cc(-c2ccccc2OCC2CC2)c2ncccn12

Structure (SMILES): O=C(NOC[C@H](O)CO)c1ccc(F)c(F)c1Nc1ccc(I)cc1F
% of control [2]: 81%

% of control [3]: 100%
% of control [4]: 100%
Structure (SMILES): CCN(CC)CCCCNc1ncc2cc(-c3cc(OC)cc(OC)c3)c(NC(=O)NC(C)(C)C)nc2n1

Structure (SMILES): COc1cc(Nc2nc(C)cc(-c3cnn4nc(OC)ccc34)n2)cc(C(F)(F)F)c1
% of control [5]: 100%

Structure (SMILES): CN(C)CCOc1ccc(-c2nc(-c3ccncc3)c(-c3ccc4c(c3)CC/C4=N\O)[nH]2)cc1
% of control [6]: 85%

Structure (SMILES): N#Cc1cccc(-c2c[nH]c3ncnc(N4CCOCC4)c23)c1
% of control [7]: 8.2%

— ChEMBL document CHEMBL5465560, “Selectivity Literature for EUbOPEN Chemogenomic Library” (2024)
